The text below walks through data of patent US6610741B1, “Skin cosmetic compositions containing a weak carboxylic acid and random copolymers of ethylene oxides and propylene oxides” (Unilever Home & Personal Care USA division of Conopco, Inc., priority 1999, dated 2003).

The experiment deals with contralateral nasolabial folds of subjects sensitive to glycolic acid. Briefly: in-vivo sting test (sting/burn propensity and forced choice). Conditions: additive in Base Formula A + 8% glycolic acid, pH 3.8; result in words. The arrangement: species or system human.

From the text: Procedure for in-vivo sting test: This was a randomized, double blind study where each subject evaluated one test formulation and a control formulation or two test formulations on contralateral nasolabial folds. […] A maximum of 20 qualified subjects (minimum of 15) were utilized in each subsequent test. One paired comparison was made on each testing day, with a minimum of 3 days between sting testing throughout the study. Subjects underwent a 15 second Ivory soap wash regime immediately prior to product testing for enhancing sting response. […] Study personnel then applied one test formulation and one control or test formulation simultaneously to the appropriate left/right test site, and gently but thoroughly rubbed in. Subjects compared the stinging potential of the two formulations, over a 7.5 minute period using a self-assessment questionnaire.
Sting/Burn Propensity: The degree of stinging/burning felt on the left and right inner cheek and crease of the nose was evaluated using the following scale at the times indicated in Tables below:
0-no stinging/burning; 1-very slight stinging/burning; 2-slight stinging/burning; 3- moderate stinging/burning; 4-moderately high stinging/burning; 5-high stinging/burning; 6-extreme stinging/burning. […]
Statistical significance was determined at p≦0.1.

As for `C[C@]12CCC(=O)C=C1CC[C@@H]1[C@@H]2[C@@H](O)C[C@@]2(C)[C@H]1CC[C@]2(O)C(=O)CO` [hydrocortisone], the “effect of additive on sting of Base Formula A containing 8% glycolic acid” value was “neither hydrocortisone nor arabinogalactan reduced the sting”.
